Source: US8686115B2, “Compositions and methods for quantitatively monitoring lipids” (The Board of Trustees of the University of Illinois, priority 2009, dated 2014)
One block for each molecule: values may come before it.

Columns and labels:
[1] = biological target: T1, DAN-eENTH: epsin 1 ENTH domain variant M10C/C96A/S4W, SEQ ID NO: 2, labeled with DAN at C10 (Homo sapiens, UniProt Q9Y6I3, C96A/M10C/S4W); assay: SPR: effect of IP3 on DAN-eENTH binding to PtdIns(4,5)P2-containing vesicles; details: 5 μM IP3; 50 nM DAN-eENTH; POPC/POPS/PtdIns(4,5)P2 (77:20:3) LUVs; 5 min incubation; pH 7.4
T1 construct: The Epsin1 ENTH domain (1-158 amino acids) was subcloned; GST (C, cleaved yes); made in house; host or cells: E. coli BL21 RIL codon plus
T1 sequence (Q9Y6I3 1-158 S4W/M10C/C96A): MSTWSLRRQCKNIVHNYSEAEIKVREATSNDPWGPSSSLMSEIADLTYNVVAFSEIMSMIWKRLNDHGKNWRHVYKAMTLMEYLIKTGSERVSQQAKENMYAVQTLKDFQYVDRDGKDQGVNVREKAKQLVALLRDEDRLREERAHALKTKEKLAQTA
Protocol: (§1) With respect to FIG. 1, an L1 sensor chip was coated with POPC/POPS/PtdIns(4,5)P2 (77:20:3) LUVs. The proteins were incubated with a given concentration of IP3 for 5 minutes before injecting into the SPR instrument. Kinetic SPR measurements were performed in 20 mM Tris-HCL, pH 7.4, containing 0.16 KCl. […] A lower concentration of DAN-eENTH was used than that of PLCδ PH because the former has much higher affinity that the latter.

[2] = tested on: PLCδ PH domain; assay: SPR: inhibition by IP3 of PLCδ PH domain binding to PtdIns(4,5)P2-containing vesicles; details: 5 μM IP3; 250 nM PLCδ PH domain; POPC/POPS/PtdIns(4,5)P2 (77:20:3) LUVs; 5 min incubation; pH 7.4
Protocol: as §1

[3] = tested on: PtdIns(4,5)P2 in the plasma membrane; assay: Effect of ionomycin on plasma membrane PtdIns(4,5)P2 in cells microinjected with DAN-eENTH; type: cell-based; details: majority of DAN-eENTH released to the cytosol
Protocol: [DAN-eENTH] was adjusted to give strong enough FB and FG signals for robust data analysis. […] Also, when [PtdIns(4,5)P2] in the plasma membrane was lowered by ionomycin treatment, a majority of DAN-eENTH was released to the cytosol.
NIH 3T3 cells were seeded into 8-well plates and grown at 37° C. in a humidified atmosphere of 95% air and 5% CO2 in Dulbecco's modified Eagle's medium (DMEM) (Invitrogen) supplemented with 10% (v/v) fatal bovine serum (Invitrogen). DAN-eENTH was delivered into the cells by microinjection using the Eppendorf InjectMan NI 2 system. All microscopy measurements and data analysis were performed as described above. For cell measurements, the minimal FB value was taken from the cytosol where PtdIns(4,5)P2 is absent and (FB)max was taken after the excess amount of exogenous PtdIns(4,5)P2 was delivered to the cell by either microinjection or as vesicle formulation. […] Thus, the cellular [PtdIns(4,5)P2] was determined from the observed (FB/FG) values using the in vitro calibration curve determined using POPC/POPS/PtdIns(4,5)P2 GUVs.

[4] = SPR analysis of lipid selectivity of Lact-C2 and mutant; type: binding; details: FIG. 12(a), 12(b)
Excerpt: The Lact-C2 domain was converted into a PA-specific protein through protein engineering based on the crystal structure of Lact-C2 (J. Biol. Chem., (283)7230-7241 (2008)) and our molecular insight into PA and PS binding proteins. In the crystal structure, D80, H83, and Q85 interact with the serine head group of PS, so we mutated them to R, E, and K, respectively, to abrogate PS binding. Since PA has higher negative charge density without the head group, a mutant without PS binding may still interact with PA with high affinity. […] PA formation in NIH 3T3 cells in the presence of the phorbol ester, PMA, was successfully quantified.

effect on binding to PtdIns(4,5)P2-containing vesicles [1]: minimal effect
inhibition of binding to PtdIns(4,5)P2-containing vesicles [2]: > 70%
Molecule: O=P(O)(O)O[C@@H]1[C@H](O)[C@H](O)[C@@H](OP(=O)(O)O)[C@H](OP(=O)(O)O)[C@H]1O [IP3, inositol-(1,4,5)-triphosphate]

Molecule: C[C@H](CCC(=O)O)C[C@H](C)C[C@H](C)C(=O)/C=C(\O)[C@H](C)C[C@H](C)C/C=C/[C@@H](C)[C@@H](O)[C@@H](C)[C@@H](O)C[C@@H]1CC[C@@](C)([C@H]2CC[C@@](C)([C@@H](C)O)O2)O1 [ionomycin]
[PtdIns(4,5)P2] in the plasma membrane upon ionomycin treatment [3]: lowered

B1: Lact-C2: C2 domain of bovine lactadherin, SEQ ID NO:3 (protein)
chain: CTEPLGLKDNTIPNKQITASSYYKTWGLSAFSWFPYYARLDNQGKFNAWTAQTNSASEWLQIDLGSQKRVTGIITQGARDFGHIQYVAAYRVAYGDDGVTWTEYKDPGASESKIFPGNMDNNSHKKNIFETPFQARFVRIQPVAWHNRITLRVELLGC
modifications: C2 domain of bovine lactadherin.
lipid selectivity by SPR [4]: PS-specific
